Several values for one entry are separate records, joined by “and”; a condition that tells them apart may be missing. Identical values can stand only once. Like-named read-outs stand apart in the source and are kept apart here.
Key:
GlyRα1 [1] = target: T1, GlyRα1 (Homo sapiens, UniProt P23415); assay: Two-electrode voltage clamp, Xenopus laevis oocytes expressing GlyRα1 alone; format: cell-based
T1 construct: expressed in transfected cells; host or cells: Xenopus laevis oocytes (cRNA injection)
T1 sequence (P23415 29-457): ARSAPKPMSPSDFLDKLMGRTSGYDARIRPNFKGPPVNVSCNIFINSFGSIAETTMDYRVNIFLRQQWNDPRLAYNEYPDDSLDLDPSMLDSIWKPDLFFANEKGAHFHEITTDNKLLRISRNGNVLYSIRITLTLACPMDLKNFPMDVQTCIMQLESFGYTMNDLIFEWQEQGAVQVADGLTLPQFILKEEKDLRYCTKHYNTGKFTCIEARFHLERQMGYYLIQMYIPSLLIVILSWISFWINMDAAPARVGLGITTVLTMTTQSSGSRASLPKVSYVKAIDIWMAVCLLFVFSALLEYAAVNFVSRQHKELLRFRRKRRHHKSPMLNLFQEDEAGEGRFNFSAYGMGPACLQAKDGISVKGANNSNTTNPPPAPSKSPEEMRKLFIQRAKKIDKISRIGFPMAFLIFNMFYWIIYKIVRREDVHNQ
Source text: (§1) Human GlyT1b and GlyT2a WT cDNA were subcloned into the plasmid oocyte transcription vector (pOTV) and human GlyRα1, GlyRα3 and GlyRβ into pGEMHE. GlyR cDNA pGEMHE vectors were provided by Mary Collins at the University of Sydney (Sydney, Australia). Single point mutations were introduced into GlyRα1 using the Q5 site-directed mutagenesis kit (New England Biolabs (Genesearch), Arundel, Australia) with oligonucleotide primers (Merck, Sydney, Australia) containing the desired mutations. The amplified cDNA/pOTV or cDNA/pGEMHE product was then transformed in E. coli cells, and subsequently purified using the PureLink Quick Plasmid Miniprep Kit (Invitrogen by Life Technologies, Löhne, Germany), and sequenced by the Australian Genome Research Facility (Sydney, Australia). The purified plasmid DNA was linearised via the restriction enzyme, SpeI (New England Biolabs (Genesearch), Arundel, Australia) for GlyT1b and GlyT2a (henceforth referred to as GlyT1 and GlyT2 respectively) and NheI (New England Biolabs (Genesearch)) for GlyRα1, GlyRα3 and GlyRβ. Complementary RNAs were synthesised using the mMESAGE mMACHINE T7 kit (Ambion, Austin, TX, USA).
(§2) All work involving the use of animals was performed in accordance with the Australian Code of Practice for the Care and Use of Animals for Scientific Purposes and approved by the University of Sydney Animal Ethics Committee (Approval numbers 2016/970 and 2020/1704). […] The oocytes were then stored in frog Ringer’s solution (96 mM NaCl, 2 mM KCl, 1 mM MgCl2, 1.8 mM CaCl2, 5 mM HEPES, pH 7.5) which was supplemented with 2.5 mM sodium pyruvate, 0.5 mM theophylline, 50 μg/mL gentamicin and […] tetracycline. The oocytes were stored at 18 °C for 3–5 days, until transporter and receptor expression were adequate for measurement using the two-electrode voltage clamp technique.
(§3) GlyT1, GlyT2, GlyRα1, GlyRα3, GlyRα1β and GlyRα3β are electrogenic, allowing activation to be measured via the two-electrode voltage clamp technique. Oocytes were voltage clamped at −60 mV, and whole-cell currents generated by the substrate were recorded with a Geneclamp 500 amplifier (Axon Instruments, Foster City, CA, USA), digitised by a Powerlab 2/20 chart recorder (ADInstruments, Sydney, Australia). LabChart version 8 software (ADInstruments, Sydney, Australia) was used to visualise and process current traces. Recordings were performed in frog Ringer’s solution, except for low Na^+ experiments where Na^+ was replaced with choline. Oocytes were placed in an oval-shaped bath with a volume of 0.3 mL, with laminar flow around the oocyte at a rate of 12 mL min^−1 under gravity feed.
(§4) Varying concentrations of substrate or agonist were applied to cells in ND96.
(§5) Flow of the solution was stopped until the current plateaued, by manually closing a three-way valve on one end of the bath such that the solution in the bath was static and is referred to henceforth as ‘stop-flow’.

GlyT2 [2] = conditions: cited from earlier work
GlyRα1 [3] = conditions: % stimulation of glycine EC5 caused by 1 µM lipid; cited from earlier work
GlyRα1/GlyT2 [4] = assay: Two-electrode voltage clamp, oocytes co-expressing GlyRα1/GlyT2; format: cell-based, human; conditions: for GlyT contribution to overall peak current (current in presence of strychnine as % of current without) / GlyT contribution to stopped flow current (current in presence of strychnine as % of current without): 1 µM strychnine; for GlyT contribution to overall peak current (current in presence of strychnine as % of current without): fast-flow peak; for GlyT contribution to stopped flow current (current in presence of strychnine as % of current without): stop-flow
Source text: as §1, §2, §3
(§6) Varying concentrations of substrate or agonist were applied to cells in ND96. […]

GlyRα3 = GlyRα3 (Homo sapiens, UniProt O75311); conditions: read-out: Fast-Flow Glycine EC50
Source text: as §1, §2, §3, §4

GlyRα3/GlyT1 = GlyRα3/GlyT1 (Homo sapiens, UniProt O75311); conditions: read-out: Fast-Flow Glycine EC50
Source text: as §1, §2, §3, §4

GlyRα3/GlyT2 = GlyRα3/GlyT2 (Homo sapiens, UniProt O75311); conditions: read-out: Fast-Flow Glycine EC50
Source text: as §1, §2, §3, §4

GlyT1 = GlyT1 (Homo sapiens, UniProt P48067); conditions: read-out: glycine EC50 (transport current); GlyT1 expressed alone
Source text: as §1, §2, §3, §4

GlyT2 [5] = target: GlyT2 (Homo sapiens, UniProt Q9Y345); conditions: read-out: glycine EC50 (transport current); GlyT2 expressed alone
Source text: as §1, §2, §3, §4

GlyRα3β/GlyT1 = GlyRα3β/GlyT1 (Homo sapiens, UniProt O75311+P48167); conditions: read-out: Fast-Flow Glycine EC50
Source text: (§7) Human GlyT1b and GlyT2a WT cDNA were subcloned into the plasmid oocyte transcription vector (pOTV) and human GlyRα1, GlyRα3 and GlyRβ into pGEMHE. […] Single point mutations were introduced into GlyRα1 using the Q5 site-directed mutagenesis kit (New England Biolabs (Genesearch), Arundel, Australia) with oligonucleotide primers (Merck, Sydney, Australia) containing the desired mutations. […] The purified plasmid DNA was linearised via the restriction enzyme, SpeI (New England Biolabs (Genesearch), Arundel, Australia) for GlyT1b and GlyT2a (henceforth referred to as GlyT1 and GlyT2 respectively) and NheI (New England Biolabs (Genesearch)) for GlyRα1, GlyRα3 and GlyRβ. Complementary RNAs were synthesised using the mMESAGE mMACHINE T7 kit (Ambion, Austin, TX, USA). […]
(§8) GlyT1, GlyT2, GlyRα1, GlyRα3, GlyRα1β and GlyRα3β are electrogenic, allowing activation to be measured via the two-electrode voltage clamp technique. Oocytes were voltage clamped at −60 mV, and whole-cell currents generated by the substrate were recorded with a Geneclamp 500 amplifier (Axon Instruments, Foster City, CA, USA), digitised by a Powerlab 2/20 chart recorder (ADInstruments, Sydney, Australia). […]

GlyRα3β/GlyT2 = GlyRα3β/GlyT2 (Homo sapiens, UniProt O75311+P48167); conditions: read-out: Fast-Flow Glycine EC50
Source text: as §7, §8

GlyRα1-mCherry = conditions: read-out: Glycine EC50; tagged receptor alone
Protocol: (§9) The oocytes were then stored in frog Ringer’s solution (96 mM NaCl, 2 mM KCl, 1 mM MgCl2, 1.8 mM CaCl2, 5 mM HEPES, pH 7.5) which was supplemented with 2.5 mM sodium pyruvate, 0.5 mM theophylline, 50 μg/mL gentamicin and 100 μM mL^−1 tetracycline. The oocytes were stored at 18 °C for 3–5 days, until transporter and receptor expression were adequate for measurement using the two-electrode voltage clamp technique.

GlyT2-GFP = conditions: read-out: Glycine EC50; tagged transporter alone
Protocol: as §9

GlyRα1 [6] = conditions: cited from earlier work
GlyRα1/GlyT1 = assay: Two-electrode voltage clamp, oocytes co-expressing GlyRα1/GlyT1; format: cell-based, human; conditions: 1 µM strychnine; for GlyT contribution to overall peak current (current in presence of strychnine as % of current without): fast-flow peak; for GlyT contribution to stopped flow current (current in presence of strychnine as % of current without): stop-flow
Source text: as §1, §2, §3, §4, §5

GlyRα1/GlyT2 [7] = target: T2, GlyRα1/GlyT2 (Homo sapiens, UniProt Q9Y345); assay: Two-electrode voltage clamp, oocytes co-expressing GlyRα1/GlyT2; format: cell-based; conditions: 1 µM inhibitor; fast-flow
T2 construct: expressed in transfected cells; host or cells: Xenopus laevis oocytes (cRNA co-injection)
T2 sequence (Q9Y345 1-797): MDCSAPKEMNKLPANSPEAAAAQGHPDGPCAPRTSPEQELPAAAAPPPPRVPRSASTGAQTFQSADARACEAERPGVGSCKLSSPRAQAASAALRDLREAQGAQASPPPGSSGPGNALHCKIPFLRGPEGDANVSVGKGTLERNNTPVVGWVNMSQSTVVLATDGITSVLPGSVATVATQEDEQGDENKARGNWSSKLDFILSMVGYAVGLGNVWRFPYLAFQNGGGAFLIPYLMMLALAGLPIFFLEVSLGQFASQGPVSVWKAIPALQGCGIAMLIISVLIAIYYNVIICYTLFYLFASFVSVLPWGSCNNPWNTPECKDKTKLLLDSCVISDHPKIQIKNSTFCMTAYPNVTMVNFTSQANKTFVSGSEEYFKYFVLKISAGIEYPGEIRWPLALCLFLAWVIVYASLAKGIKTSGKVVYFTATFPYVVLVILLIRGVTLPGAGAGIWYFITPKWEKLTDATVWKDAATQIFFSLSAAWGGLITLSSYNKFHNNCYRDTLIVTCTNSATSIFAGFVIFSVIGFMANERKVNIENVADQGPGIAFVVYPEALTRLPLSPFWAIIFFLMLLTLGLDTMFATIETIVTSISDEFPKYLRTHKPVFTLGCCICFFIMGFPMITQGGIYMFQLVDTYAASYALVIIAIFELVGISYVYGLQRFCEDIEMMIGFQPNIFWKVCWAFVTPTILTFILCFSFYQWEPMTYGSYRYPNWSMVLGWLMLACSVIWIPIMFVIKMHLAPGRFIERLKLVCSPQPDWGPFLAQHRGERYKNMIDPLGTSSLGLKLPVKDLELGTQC
Source text: as §1, §2, §3, §6

GlyT2 [8] = conditions: cited from earlier work; remark: listed apart in the source

Sequence of GlyRα3/GlyT1 (O75311 34-464): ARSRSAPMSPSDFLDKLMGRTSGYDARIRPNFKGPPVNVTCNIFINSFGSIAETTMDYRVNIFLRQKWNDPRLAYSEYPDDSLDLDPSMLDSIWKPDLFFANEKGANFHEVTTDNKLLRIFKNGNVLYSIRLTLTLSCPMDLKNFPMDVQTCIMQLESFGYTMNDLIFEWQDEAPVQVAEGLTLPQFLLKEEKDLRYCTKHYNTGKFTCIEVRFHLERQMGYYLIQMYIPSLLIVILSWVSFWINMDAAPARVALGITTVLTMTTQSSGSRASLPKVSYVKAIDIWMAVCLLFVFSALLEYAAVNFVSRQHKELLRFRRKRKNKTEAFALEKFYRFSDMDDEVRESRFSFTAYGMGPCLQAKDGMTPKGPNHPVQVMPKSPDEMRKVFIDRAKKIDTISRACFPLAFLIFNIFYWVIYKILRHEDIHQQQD
Sequence of GlyRα3β/GlyT2 (O75311 34-464): as above
Sequence of GlyRα3β/GlyT2 (P48167 23-497): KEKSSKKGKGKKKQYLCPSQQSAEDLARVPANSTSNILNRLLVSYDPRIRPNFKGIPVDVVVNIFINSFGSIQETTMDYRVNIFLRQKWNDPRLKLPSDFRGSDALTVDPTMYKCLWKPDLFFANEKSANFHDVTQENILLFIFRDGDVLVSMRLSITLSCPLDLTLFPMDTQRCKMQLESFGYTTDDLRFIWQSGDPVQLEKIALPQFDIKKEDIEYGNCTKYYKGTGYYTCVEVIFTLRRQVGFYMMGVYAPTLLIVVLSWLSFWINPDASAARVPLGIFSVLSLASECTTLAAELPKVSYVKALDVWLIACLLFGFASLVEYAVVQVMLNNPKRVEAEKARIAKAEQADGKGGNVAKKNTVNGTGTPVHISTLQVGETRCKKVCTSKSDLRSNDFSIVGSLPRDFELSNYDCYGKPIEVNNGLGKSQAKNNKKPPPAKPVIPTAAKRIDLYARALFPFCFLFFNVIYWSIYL
Sequence of GlyRα3 (O75311 34-464): as the sequence (O75311 34-464) above
Sequence of GlyRα3β/GlyT1 (O75311 34-464): as above
Sequence of GlyRα3β/GlyT1 (P48167 23-497): as the sequence (P48167 23-497) above
Sequence of GlyRα3/GlyT2 (O75311 34-464): as the sequence (O75311 34-464) above
Sequence of GlyT1 (P48067 1-652 isoform P48067-3): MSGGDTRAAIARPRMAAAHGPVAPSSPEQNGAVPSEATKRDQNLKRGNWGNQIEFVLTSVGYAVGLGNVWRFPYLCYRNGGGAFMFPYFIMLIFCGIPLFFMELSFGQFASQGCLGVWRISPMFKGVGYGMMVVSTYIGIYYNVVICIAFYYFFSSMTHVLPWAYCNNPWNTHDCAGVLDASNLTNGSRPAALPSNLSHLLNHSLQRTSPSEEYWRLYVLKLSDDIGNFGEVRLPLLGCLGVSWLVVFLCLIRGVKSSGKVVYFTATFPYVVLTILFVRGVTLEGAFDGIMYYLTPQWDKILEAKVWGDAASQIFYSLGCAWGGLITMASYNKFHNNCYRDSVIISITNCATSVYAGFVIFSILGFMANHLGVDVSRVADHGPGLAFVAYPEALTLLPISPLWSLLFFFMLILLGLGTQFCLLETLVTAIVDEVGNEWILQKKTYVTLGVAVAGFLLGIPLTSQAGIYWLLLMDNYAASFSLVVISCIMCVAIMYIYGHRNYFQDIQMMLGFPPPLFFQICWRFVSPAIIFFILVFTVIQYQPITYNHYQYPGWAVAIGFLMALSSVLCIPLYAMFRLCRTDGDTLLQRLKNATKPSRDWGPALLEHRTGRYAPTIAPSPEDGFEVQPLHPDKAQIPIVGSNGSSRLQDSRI

SMILES: CCCCCCCCC=CCCCCCCCC(=O)NC(CCSC)C(=O)O [C18-cis-ω9-L-methionine]
- nH of glycine dose-response in the presence of lipid (GlyRα1 [1]; 1 µM lipid, fast-flow): 2.2 ± 0.3 ns
- GlyT2 Activity: % Inhibition (1 µM) (GlyT2 [2]; 1 µM lipid, inhibition of glycine transport): 84.9 ± 0.07%
- IC50 (GlyT2 [2]; inhibition of glycine transport by GlyT2): 0.0292 µM
- GlyT2 Activity: Max inhibition (%) (GlyT2 [2]; maximal level of inhibition observed): 91.2%
- GlyRα1 Potentiation at EC5 (%) (GlyRα1 [3]): 2.2 ± 4.2% and 2.2 ± 4.2 (6) %

SMILES: NCC(=O)O [glycine]
- Peak Current (GlyRα1 [1]): 740.6 ± 105.9 nA
- EC50 (GlyRα1/GlyT2 [4]; read-out: Fast-Flow Glycine EC50): 30.9 µM and 41.6 µM and 34.1 µM and 27.9 µM and 27.3 µM
- EC50 (GlyRα1/GlyT2 [4]; read-out: Glycine EC50): 23 µM
- EC50 (GlyRα1/GlyT2 [4]; read-out: Stop-Flow Glycine EC50): 83.1 µM
- EC50 (GlyRα3): 64.8 µM
- EC50 (GlyRα3/GlyT1): 154 µM
- EC50 (GlyRα3/GlyT2): 160 µM
- EC50 (GlyT1): ~35 µM
- EC50 (GlyT2 [5]): 21.8 µM and ~30 µM
- EC50 (GlyRα3β/GlyT1): 220 µM
- EC50 (GlyRα3β/GlyT2): 224 µM
- EC50 (GlyRα1-mCherry): 15.7 µM
- EC50 (GlyT2-GFP): 28.1 µM
- EC50 (GlyRα1 [6]; read-out: glycine EC50, ref 51): 24 µM
- EC50 (GlyRα1 [6]; read-out: glycine EC50, ref 52): 42 µM
- EC50 (GlyRα1 [6]; read-out: glycine EC50 values in oocytes, variable with maximal current): 20 to 280 µM

SMILES: O=C1C[C@@H]2OCC=C3CN4CC[C@]56c7ccccc7N1[C@H]5[C@H]2[C@H]3C[C@H]46 [strychnine]
- GlyT contribution to overall peak current (current in presence of strychnine as % of current without) (GlyRα1/GlyT1; 10 µM glycine): 53.2 ± 6.9%
- GlyT contribution to stopped flow current (current in presence of strychnine as % of current without) (GlyRα1/GlyT1; 10 µM glycine): 61.5 ± 13.9%
- GlyT contribution to overall peak current (current in presence of strychnine as % of current without) (GlyRα1/GlyT1; 30 µM glycine): 14.4 ± 1.8%
- GlyT contribution to stopped flow current (current in presence of strychnine as % of current without) (GlyRα1/GlyT1; 30 µM glycine): 5.2 ± 1.3%
- GlyT contribution to overall peak current (current in presence of strychnine as % of current without) (GlyRα1/GlyT2 [4]; 10 µM glycine): 16.6 ± 3.7%
- GlyT contribution to stopped flow current (current in presence of strychnine as % of current without) (GlyRα1/GlyT2 [4]; 10 µM glycine): 16.2 ± 2.1%
- GlyT contribution to overall peak current (current in presence of strychnine as % of current without) (GlyRα1/GlyT2 [4]; 30 µM glycine): 1.7 ± 0.4%
- GlyT contribution to stopped flow current (current in presence of strychnine as % of current without) (GlyRα1/GlyT2 [4]; 30 µM glycine): 1.6 ± 0.4%

SMILES: COc1cc(C(=O)NCC2(N(C)C)CCCC2)cc(OC)c1OCc1ccccc1 [ORG-25543]
- nH of glycine dose-response in the presence of GlyT inhibitor (GlyRα1/GlyT2 [7]): 2.6 ± 0.4 ns
- IC50 (GlyT2 [8]): 0.016 µM

Source: publication PMC7760315 (Biomolecules, 2020)
